pEC50, pKi: −log10 of the molar value. Read-outs that look alike come from different tables or passages of the source. Starred links: 1 amine or outer side, 2 acyl side, 3 side chain; linkers in the order of their positions; H or OH if unused. Positions of bridges follow the written chain, without caps; N, C: chain ends. Non-standard residues stand in square brackets, D forms with d. Residues, ends and D or L forms follow the SMILES beside them. Pen = CC(C)(S)[C@H](N)C(=O)O; d(hCys) = N[C@H](CCS)C(=O)O; Orn = NCCC[C@H](N)C(=O)O; Thz = O=C(O)[C@@H]1CSCN1; X1 = C(CN[*:2])CS[*:1]
Tests used:
human MC4R [1] = molecular target: T1, human MC4R (Homo sapiens, UniProt P32245); assay: 125NDP-α-MSH competitive binding to membranes of BHK cells expressing human MC4 receptor (filtration assay); conditions: human MC4R, BHK cell membranes, 125NDP-α-MSH radioligand; read-out: MC4R binding Ki
T1 construct: expressed in transfected cells
T1 sequence (P32245 whole entry): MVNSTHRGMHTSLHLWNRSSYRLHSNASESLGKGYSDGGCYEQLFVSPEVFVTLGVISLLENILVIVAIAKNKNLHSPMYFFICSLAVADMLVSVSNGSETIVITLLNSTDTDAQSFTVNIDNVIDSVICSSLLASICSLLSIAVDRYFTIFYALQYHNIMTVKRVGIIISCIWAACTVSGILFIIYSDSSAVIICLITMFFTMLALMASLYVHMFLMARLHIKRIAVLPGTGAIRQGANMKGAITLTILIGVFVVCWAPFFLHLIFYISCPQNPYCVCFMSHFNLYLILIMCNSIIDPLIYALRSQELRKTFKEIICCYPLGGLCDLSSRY
Method: In Vitro ^125NDP-α-MSH Binding to Recombinant BHK Cells Expressing Human MC4 Receptor (Filtration Assay)
In order to assess the binding affinity of the selected compounds for the human MC4R competitive binding assays was performed with radiolabeled NDP-alpha MSH (^125NDP-α-MSH).
The assay was performed in 96-well filterplates (Unifilter) using BHK cells stably expressing the human MC4 receptor.
The BHK cell membranes were prepared from frozen or fresh cells that were homogenized in 20 mM HEPES pH 7.1, 5 mM MgCl2, 1 mg/ml bacitracin (buffer 1) and centrifuged at 15000 rpm at 4° C., 10 min in a Sorvall RC 5B plus, SS-34 rotor. The supernatant was discarded, and the pellets were re-suspended in buffer 1, homogenized and centrifuged two more times. The final pellets were re-suspended in buffer 1 and the protein concentration was measured and adjusted with buffer 1 to 5 mg/ml and the membrane preparation was kept at −80° C. until assay. The assay was run on a dilution of this cell membrane suspension without any further preparation. The suspension was diluted to give maximally 10% specific binding, i.e. to approx. 50-100 fold dilution, optimized after each membrane preparation. The assay was performed in a total volume of 200 μl: 50 μl of cell suspension, 50 μl of ^125NDP-α-MSH (apx. […] in final concentration), 50 μl of test compound and 50 μl binding buffer were mixed and incubated for 2 h at 25° C. (binding buffer: 25 mM HEPES, pH 7.0, 1 mM CaCl2), 1 mM MgSO4, 1 mM EGTA, 0.005% Tween™ 20 and 0.1% HSA or, alternatively, 0.1% ovalbumin (Sigma; catalogue No. A-5503)). Test compounds were dissolved in 100% DMSO and diluted in binding buffer in a dose range from 1 μM to 0.001 nM. Radiolabelled ligand and membranes were diluted in binding buffer. The incubation was stopped by dilution with 8×100 μl ice-cold 0.9% NaCl. The radioactivity retained on the filters was counted using a Packard Topcounter. The data were analysed by non-linear regression analysis of binding curves, using the Windows™ program GraphPad™ Prism (GraphPad Software, USA).

human MC4R [2] = molecular target: T1, human MC4R; assay: Functional cAMP assay (CisBio HTRF) in BHK cells expressing human MC4R; format: cell-based; conditions: for MC1R/MC4R cAMP EC50 ratio: MC1R cAMP EC50 divided by MC4R cAMP EC50
Method: In order to assess the potency of the compounds on human MC1R and human MC4R cAMP signalling was measured.
cAMP induction was measured by c-AMPdynamic2 assay, HTRF 62AM4PEC system from CisBio for the human MC1R and human MC4R according to the protocol provided by the vendor. BHK cells expressing the human MC1 or MC4 receptor were generated by stable transfection with expression vectors encoding the cDNA of either MC1R or MC4R.
In details; 25 μl compound—or standard solution were added in the respective wells. Compound was reconstituted in buffer (DMEM w/o phenol red, 10 mM
Hepes, lx Glutamine, 0.1% OV-albumin1, 1 mM IBMX) and serially diluted starting at 2 μM, 10-fold seven times. Dilutions were carried out in the same aforementioned buffer to the desired working concentration ranges (2× higher than the final concentration). 25 μl cell solution was then added and allowed to incubate for 30 min while lightly shaking, at 25° C. […] The provided components for the assay were reconstituted according to the CisBio assay protocol “3.1 supplied reagents and preparation procedure” in MilliQ purification system H2O and diluted 1:20 in lysis buffer. 25 μl cAMP-d2 and 25 μl Cryptate conjugate were added to all wells.
Plates were centrifuged at 1500 rpm for 30 sec and incubated for 1 h, lightly shaking, at 25° C. in a hotel stacker. The plates were read on Mithras LB 940 provided by Berthold Technologies The data were analysed by non-linear regression analysis of binding curves, using the Windows™ program GraphPad™ Prism (GraphPad Software, USA).
The latter is used when no full curve can be obtained in the concentration ranges indicated above.

[3] = BHK cells expressing human MC4R, '>' = highest dose used with no response, read-out: MC4R cAMP EC50

pKi (human MC4R [1])	pEC50 (human MC4R [2]; [3])	Compound	MC1R/MC4R cAMP EC50 ratio (human MC4R [2])	pEC50 (human MC4R [2])
9.38	9.59	CC(=O)N[C@@H](C)C(=O)N[C@@H](Cc1c[nH]cn1)C(=O)N[C@H](Cc1ccccc1)C(=O)N[C@@H](CCCNC(=N)N)C(=O)N[C@@H](Cc1c[nH]c2ccccc12)C(=O)N[C@@H]1CCSSCCCNC(=O)[C@H](Cc2c[nH]c3ccccc23)NC(=O)[C@H](CCCNC(=N)N)NC(=O)[C@@H](Cc2ccccc2)NC(=O)[C@H](Cc2c[nH]cn2)NC(=O)[C@H](C)NC1=O [Chem. 3, c[c[HCys-Ala-His-D-Phe-Arg-Trp- HCys]-Ala-His-D-Phe-Arg-Trp]] (Ac-AH[dF]RW[d(hCys)]AH[dF]RW; linker 6-C via X1)	28	
9.72	10.22	CC(=O)N[C@@H](Cc1c[nH]cn1)C(=O)N[C@H](Cc1ccccc1)C(=O)N[C@@H](CCCNC(=N)N)C(=O)N[C@@H](Cc1c[nH]c2ccccc12)C(=O)N[C@H](C)C(=O)N[C@@H]1CCSSCCCNC(=O)[C@@H](C)NC(=O)[C@H](Cc2c[nH]c3ccccc23)NC(=O)[C@H](CCCNC(=N)N)NC(=O)[C@@H](Cc2ccccc2)NC(=O)[C@H](Cc2c[nH]cn2)NC1=O [Chem. 6, c[c[Cys-His-D-Phe-Arg-Trp-D-Ala- Cys]-His-D-Phe-Arg-Trp-D-Ala]] (Ac-H[dF]RW[dA][d(hCys)]H[dF]RW[dA]; linker 6-C via X1)	39	
9.33	10.22	C[C@@H]1NC(=O)[C@H](C)NC(=O)[C@H](Cc2c[nH]c3ccccc23)NC(=O)[C@H](CCCNC(=N)N)NC(=O)[C@@H](Cc2ccccc2)NC(=O)[C@H](Cc2c[nH]cn2)NC(=O)[C@H](C)NC(=O)[C@H](C)NC(=O)[C@H](Cc2c[nH]c3ccccc23)NC(=O)[C@H](CCCNC(=N)N)NC(=O)[C@@H](Cc2ccccc2)NC(=O)[C@H](Cc2c[nH]cn2)NC1=O [Chem. 7, c[Ala-Ala-His-D-Phe-Arg-Trp-Ala-Ala- His-D-Phe-Arg-Trp]] (cyclo(AAH[dF]RWAAH[dF]RW))	76	
		C[C@@H]1NC(=O)[C@@H]2CSSC[C@H](NC(=O)[C@H](CCCNC(=N)N)NC(=O)[C@H](Cc3c[nH]c4ccccc34)NC(=O)[C@H](CCCNC(=N)N)NC(=O)[C@@H](Cc3ccccc3)NC(=O)[C@H](Cc3c[nH]cn3)NC1=O)C(=O)N[C@@H](C)C(=O)N[C@@H](Cc1c[nH]cn1)C(=O)N[C@H](Cc1ccccc1)C(=O)N[C@@H](CCCNC(=N)N)C(=O)N[C@@H](Cc1c[nH]c3ccccc13)C(=O)N[C@@H](CCCNC(=N)N)C(=O)N2 [Chem. 69, c[c[Cys-Ala-His-D-Phe-Arg-Trp-Arg- Cys]-Ala-His-D-Phe-Arg-Trp-Arg]] (cyclo(AH[dF]RWRCAH[dF]RWRC); disulfide 7-14)	5	
		C[C@@H]1NC(=O)[C@@H]2CSSC[C@H](NC(=O)[C@H](CCCNC(=N)N)NC(=O)[C@H](CCCNC(=N)N)NC(=O)[C@H](CCC(=O)O)NC(=O)[C@H](CCCNC(=N)N)NC1=O)C(=O)N1CSC[C@H]1C(=O)N[C@@H](Cc1c[nH]cn1)C(=O)N[C@H](Cc1ccccc1)C(=O)N[C@@H](Cc1c[nH]cn1)C(=O)N[C@@H](Cc1c[nH]c3ccccc13)C(=O)N2 [Chem. 113, c[c[Cys-THAZ-His-D-Phe-His-Trp- Cys]-Ala-Arg-Glu-Arg-Arg]] (cyclo(ARERRC[Thz]H[dF]HWC); disulfide 6-12)	2112	10.70
		C[C@@H]1NC(=O)[C@H](C)NC(=O)[C@H](CCCN)NC(=O)[C@H](CCCCN)NC(=O)[C@@H]2CSSC[C@H](NC(=O)[C@H](Cc3c[nH]c4ccccc34)NC1=O)C(=O)N1CSC[C@H]1C(=O)N[C@@H](Cc1c[nH]cn1)C(=O)N[C@H](Cc1ccccc1)C(=O)N[C@@H](Cc1c[nH]cn1)C(=O)N[C@@H](Cc1c[nH]c3ccccc13)C(=O)N2 [Chem. 115, c[c[Cys-THAZ-His-D-Phe-His-Trp-C ys]-Lys-Orn-Ala-Ala-Trp]] (cyclo(AAWC[Thz]H[dF]HWCK[Orn]); disulfide 4-10)	1340	10.00
		C[C@@H]1NC(=O)[C@H](C)NC(=O)[C@H](CCCN)NC(=O)[C@H](CCCN)NC(=O)[C@@H]2CSSC[C@H](NC(=O)[C@H](Cc3c[nH]c4ccccc34)NC1=O)C(=O)N1CSC[C@H]1C(=O)N[C@@H](Cc1c[nH]cn1)C(=O)N[C@H](Cc1ccccc1)C(=O)N[C@@H](Cc1c[nH]cn1)C(=O)N[C@@H](Cc1c[nH]c3ccccc13)C(=O)N2 [Chem. 116, c[c[Cys-THAZ-His-D-Phe-His-Trp- Cys]-Orn-Orn-Ala-Ala-Trp]] (cyclo(AAWC[Thz]H[dF]HWC[Orn][Orn]); disulfide 4-10)	1927	9.92
		C[C@@H]1NC(=O)[C@H](C)NC(=O)[C@H](CCCCN)NC(=O)[C@H](CCCCN)NC(=O)[C@H]2NC(=O)[C@H](Cc3c[nH]c4ccccc34)NC(=O)[C@H](Cc3c[nH]cn3)NC(=O)[C@@H](Cc3ccccc3)NC(=O)[C@H](Cc3c[nH]cn3)NC(=O)[C@@H]3CSCN3C(=O)[C@H](CSSC2(C)C)NC(=O)[C@H](Cc2c[nH]c3ccccc23)NC1=O [Chem. 117, c[c[Cys-THAZ-His-D-Phe-His-Trp- Pen]-Lys-Lys-Ala-Ala-Trp]] (cyclo(AAWC[Thz]H[dF]HW[Pen]KK); disulfide 4-10)	841	9.70
		N=C(N)NCCC[C@@H]1NC(=O)[C@H](CCCCN)NC(=O)[C@@H]2CSSC[C@H](NC1=O)C(=O)N1CSC[C@H]1C(=O)N[C@@H](Cc1c[nH]cn1)C(=O)N[C@H](Cc1ccccc1)C(=O)N[C@@H](Cc1c[nH]cn1)C(=O)N[C@@H](Cc1c[nH]c3ccccc13)C(=O)N2 [Chem. 118, c[c[Cys-THAZ-His-D-Phe-His-Trp- Cys]-Lys-Arg]] (cyclo(CKRC[Thz]H[dF]HW); disulfide 1-4)	1240	
		C[C@@H]1NC(=O)[C@@H]2CSSC[C@H](NC(=O)[C@H](CCCNC(=N)N)NC(=O)[C@H](CCCN)NC(=O)[C@H](CCC(=O)O)NC(=O)[C@H](CCCN)NC1=O)C(=O)N1CSC[C@H]1C(=O)N[C@@H](Cc1c[nH]cn1)C(=O)N[C@H](Cc1ccccc1)C(=O)N[C@@H](Cc1c[nH]cn1)C(=O)N[C@@H](Cc1c[nH]c3ccccc13)C(=O)N2 [Chem. 119, c[c[Cys-THAZ-His-D-Phe-His-Trp- Cys]-Ala-Orn-Glu-Orn-Arg]] (cyclo(A[Orn]E[Orn]RC[Thz]H[dF]HWC); disulfide 6-12)	1660	10.22
	9.62	C[C@@H]1NC(=O)[C@@H]2CSSC[C@H](NC(=O)[C@H](CCCNC(=N)N)NC(=O)[C@@H](CCCCN)NC(=O)[C@@H](CCCCN)NC(=O)[C@H](Cc3c[nH]cn3)NC1=O)C(=O)N1CCC[C@H]1C(=O)N[C@@H](Cc1c[nH]cn1)C(=O)N[C@H](Cc1ccccc1)C(=O)N[C@@H](Cc1c[nH]cn1)C(=O)N[C@@H](Cc1c[nH]c3ccccc13)C(=O)N2 [Chem. 121, c[c[Cys-Pro-His-D-Phe-His-Trp-Cys]- Ala-His-D-Lys-D-Lys-Arg]] (cyclo(AH[dK][dK]RCPH[dF]HWC); disulfide 6-12)	786	

Compound	pKi (human MC4R [1])	pEC50 (human MC4R [2]; [3])	MC1R/MC4R cAMP EC50 ratio (human MC4R [2])	pEC50 (human MC4R [2])
N=C(N)NCCC[C@@H]1NC(=O)[C@@H](Cc2ccccc2)NC(=O)[C@H](Cc2c[nH]cn2)NC(=O)CNC(=O)[C@@H]2CSSC[C@H](NC(=O)[C@H](Cc3c[nH]c4ccccc34)NC1=O)C(=O)NCC(=O)N[C@@H](Cc1c[nH]cn1)C(=O)N[C@H](Cc1ccccc1)C(=O)N[C@@H](CCCNC(=N)N)C(=O)N[C@@H](Cc1c[nH]c3ccccc13)C(=O)N2 [Chem. 2, c[c[Cys-Gly-His-D-Phe-Arg-Trp-Cys]- Gly-His-D-Phe-Arg-Trp]] (cyclo(CGH[dF]RWCGH[dF]RW); disulfide 1-7)	10.15	11.00	154	

— patent publication US20200223889A1, “Bicyclic Compounds Capable of Binding to Melanocortin 4 Receptor” (Novo Nordisk A/S, priority 2017, published 2020)
